# Test results taken from patent US4242354A, “2-(2-Thenolythio)-propionylglycine: method for its preparation and pharmaceutical formulations containing said compound” (Mediolanum Farmaceutici S.r.L., priority 1978, dated 1980).
# Where two headings read alike, the source gives them in different places.
# Tests used:
# [1] = test system: elderly patients; format: in vivo, man
# Experimental: The drug was assessed, with respect to its mucolytic action, on thirty elderly patients ([…], maximal 87, mean age 72). […] The improvement was assessed on the basis of the following parameters:
# decrease of the daily quantity of sputum;
# decrease of the viscosity of the sputum;
# increase of the Tiffeneau's index;
# improved value of the erythrocyte sedimentation rate.
# A group of twenty patients, in the same mean age, was given for control purposes a known drug such as N-acetylcysteine.
# [2] = test system: bromobenzene poisoning; assay: Protective activity in the bromobenzene poisoning; format: in vivo, male rats (Sprague-Dawley); details: 300 mg/kg oral, vs investigational compound
# Experimental: Fifty male rats (Sprague-Dawley, 180-200 g bodyweight) were used for the investigation, subdivided into 5 groups, each consisting of 10 animals, given orally the following compounds
# (1) 5 percent gum arabic in tap water
# (2) 5 percent gum arabic in tap water
# (3) 2-(2-thenoylthio)-propionylglycine--200 mg/kg
# (4) 2-(2-thenoylthio)-propionylglycine--300 mg/kg
# Seven days later, the animals of the groups 2-3-4-[…] were given bromobenzene subcutaneously (150 mg/rat) while the remaining group (control) was given an equivalent volume of saline. Still seven days later, 5 of the animals of each group were given Nembutal (25 mg/kg/intraperitoneally), and the sleeping time was calculated.
# The remaining 5 animals of each group were given bromophthalein at the dose of 50 mg intravenously; thirty minutes later, the animals were sacrificed and both the present bromophthalein and SGPT (serum glutamic pyruvic transaminase) were established in the blood.
# [3] = Stability test: melting point before and after heating; format: physicochemical
# Experimental: (§1) The stability tests were carried out according to the Rogers' nonisothermic method suitably integrated by the evaluation of physical data, melting point, weight variation, and spectrophotometric assay. For each single compound, the tests were performed on a series of samples, with the weight of 100 milligrams, added for the wet tests with 1 ml of distilled water. […] The sample were kept in a thermostat at increasing temperatures, i.e. from 25° to 80° C. […] The temperature, programmed according to the Rogers' formula, resulted to be 40° C. at the end of the first hour, 50° C. at the end of the second hour, 57° C. at the end of the third hour, 63° C. at the end of the fourth hour, 69° C. at the end of the fifth hour, 73° C. at the end of the sixth hour, 77° C. at the end of the seventh hour and, as already specified, 80° C. at the end of the eighth hour.
# The melting point was established in a capillary tube, under identical conditions, on the samples No. 5 after heating for 8 hours in the previously specified conditions, and on the samples No. 10 after heating and evaporation to dryness as previously specified.
# [4] = test system: mouse; details: oral, 10 animals per dose
# [5] = background; cited from earlier work
# [6] = Rogers' nonisothermic method: energies of activation, specific velocities, validity periods; format: physicochemical
# Experimental: as §1
# The data shown in Table 7 were worked out according to the Rogers' method, drawing up the values of the energies of activation of the decomposition reactions under dry and wet conditions, the specific rate constants as well as the validity period.
# [7] = in vivo; details: rat, in vivo
# Experimental: (§2) Hundred-and-forty (140) albino rats, Sprague-Dawley strain, bodyweight 120-135 grams, subdivided into groups each consisting of 5 animals, were used for the investigation. […] For each single compound the LD 50 was assessed according to Litchfield and Wilcoxon on the basis of the mortality rate encountered in the 7 days following the treatment.
# [8] = test system: rat; assay: in vivo; details: 10 animals per dose
# Experimental: as §2
# [9] = in vivo; details: mouse, iv
# [10] = Solubility and organoleptic properties; format: physicochemical; details: 100 milligrams with 1 ml of distilled water
# [11] = test system: mouse; details: intravenous, 10 animals per dose
# [12] = Stability test: physical properties and weight variations on heating; format: physicochemical
# Experimental: as §1
# Still in Table 5, the sample from 1 to 5 refer, for each of the two compounds, to the dry substance while the samples from 6 to 10 refer to the solution or to the aqueous suspension obtained as above specified.
# (§3) In the case of the wet-treated samples, the final weight was only established on the samples No. 10 brought to dryness at 60° C. under vacuum after an 8-hour heating.
# [13] = test system: carbon tetrachloride poisoning; assay: Protective activity in the carbon tetrachloride poisoning; format: in vivo, male rats (Sprague-Dawley); details: CCl4 0.5 ml/mg sc, 7 days; drugs intramuscularly, (I) 200 and 300 mg/kg, (II) 300 mg/kg
# Experimental: Fifty male rats (Sprague-Dawley, 180-200 grams bodyweight) were used for the investigation, subdivided into 5 groups: one group was given no treatment while the remaining 4 groups were poisoned for 7 consecutive days with CCl4 at the dosage of […] given subcutaneously.
# [14] = physchem
# Experimental: as §1, §3
# [15] = test system: mercuric chloride; assay: In vivo protective action against mercurial compounds; design: species or system male mice (Swiss strain); details: 300 mg/kg ip, mercuric chloride 20 mg/kg ip, mice, 24 hours
# Experimental: Forty male mice (Swiss strain, 22 grams mean bodyweight) were used for the investigation, subdivided into 4 groups treated as follows:
# (1) mercuric chloride, 20 mg/kg/intraperitoneally;
# (4) mercuric chloride 20 mg/kg/intraperitoneally+2-thiopropionylglycine 300 mg/kg/intraperitoneally.
# Deaths occurred were recorded hourly in the first 5 hours, and thereafter after 24 hours.
# [16] = in vivo; details: mouse, po
# [17] = sample 1, dry, 1 hour 30 minutes
# [18] = sample 3, dry, 5 hours 15 minutes
# [19] = sample 5, dry, 8 hours, listed as 2-thiopropionylglycine
# [20] = sample 10, wet, 8 hours, brought to dryness
structure (smiles),measurement,setting,value
"CC(=O)N[C@@H](CS)C(=O)O [N-acetylcysteine, reference compound]",fit of cough on aerosol administration,[1]; in vivo,frequently happens
same,"decrease of the sputum, comparison of (I) and N-acetylcysteine",[1]; twenty control patients on N-acetylcysteine,overall comparable with those provided by the compound (I)
"CC(S)C(=O)NCC(=O)O (centres unmarked) [compound (II), 2-mercaptopropionylglycine, reference compound]",liver protective effect,[2],"lower than that induced by the investigational compound, and statistically not significant"
same,melting point variation,[3]; after heating,marked decrease of the melting point in the case of the wet sample
same,Final m.p. wet conditions (Sample 10),[3]; after heating 8 hours wet and evaporation to dryness,86-88 °C
same,Final m.p. dry conditions (Sample 5),"[3]; after heating for 8 hours, dry",92-94 °C
same,Initial m.p.,[3]; before heating,93-95 °C
same,No. Animals Dead,[4]; 1500 mg/kg,0
same,No. Animals Dead,[4]; 2000 mg/kg,1
same,No. Animals Dead,[4]; 2500 mg/kg (highest dose),2
same,stability (known),[5],low stability
same,Energy of activation of the decomposition reaction,[6]; dry,15.66 kcal/mol
same,Energy of activation of the decomposition reaction,[6]; wet,11.54 kcal/mol
same,LD50 at 168 h,[7]; im,1630 mg/kg
same,mortality at 168 h,"[7]; im, 1500 mg/kg",20%
same,mortality at 168 h,"[7]; im, 1750 mg/kg",60%
same,mortality at 168 h,"[7]; im, 2000 mg/kg",100%
same,mortality at 168 h,"[7]; po, 1500 mg/kg",0%
same,mortality at 168 h,"[7]; po, 2000 mg/kg",0%
same,mortality at 168 h,"[7]; po, 2500 mg/kg",20%
same,No. Animals Dead,"[8]; intramuscular, 1500 mg/kg",2
same,No. Animals Dead,"[8]; intramuscular, 1750 mg/kg",6
same,No. Animals Dead,"[8]; intramuscular, 2000 mg/kg",10
same,No. Animals Dead,"[8]; oral, 1500 mg/kg",0
same,No. Animals Dead,"[8]; oral, 2000 mg/kg",0
same,No. Animals Dead,"[8]; oral, 2500 mg/kg (highest dose)",2
same,mortality,[9]; 500 mg/kg,0%
same,mortality,[9]; 750 mg/kg,0%
same,mortality,[9]; 1000 mg/kg,10%
same,appearance in water,[10],clear solution
same,No. Animals Dead,[11]; 500 mg/kg,0
same,No. Animals Dead,[11]; 750 mg/kg,0
same,No. Animals Dead,[11]; 1000 mg/kg,1
same,Color,[12]; [17],white
same,Weight Fin.,[12]; [17],98.3 mg
same,Weight Variations,[12]; [17],-5.4%
same,Color,"[12]; sample 2, dry, 3 hours",white
same,Weight Fin.,"[12]; sample 2, dry, 3 hours, listed as 2-thiopropionylglycine",93.0 mg
same,Color,[12]; [18],white
same,Weight Fin.,[12]; [18],94.8 mg
same,Weight Variations,[12]; [18],-5.67%
same,Color,"[12]; sample 4, dry, 8 hours",white
same,Weight Fin.,"[12]; sample 4, dry, 8 hours",95.7 mg
same,Weight Variations,"[12]; sample 4, dry, 8 hours",-5.53%
same,Weight Fin.,[12]; [19],198.9 mg
same,Weight Variations,[12]; [19],-2.83%
same,Color,"[12]; sample 6, wet",colorless
same,Color,"[12]; sample 7, wet",colorless
same,Color,"[12]; sample 8, wet",colorless
same,Color,"[12]; sample 9, wet",yellowish
same,Weight Fin.,[12]; [20],193.8 mg
same,Weight Variations,[12]; [20],-3.1%
same,liver weight increase consequent to CCl4,[13],can prevent the liver weight increase
same,Content,[14],101.43%
same,E at 232 nm,[14]; as such,0.329
same,remaining at 1.5 h,[14]; dry,101%
same,remaining at 3 h,[14]; dry,101%
same,remaining at 5.25 h,[14]; dry,99.5%
same,remaining at 8 h,[14]; dry,98.4%
same,E at 232 nm,"[14]; sample 1, dry",0.325
same,E at 232 nm,"[14]; sample 2, dry",0.324
same,E at 232 nm,"[14]; sample 3, dry",0.325
same,E at 232 nm,"[14]; sample 4, dry",0.324
same,E at 232 nm,"[14]; sample 6, wet",0.333
same,E at 232 nm,"[14]; sample 7, wet",0.325
same,E at 232 nm,"[14]; sample 8, wet",0.320
same,E at 232 nm,"[14]; sample 9, wet",0.300
same,deaths,[15],10%
same,mortality,[16]; 1500 mg/kg,0%
same,mortality,[16]; 2000 mg/kg,10%
same,mortality,[16]; 2500 mg/kg,20%
